Target: T1, ABCG2 (Homo sapiens, UniProt Q9UNQ0)
T1 sequence (Q9UNQ0 1-655): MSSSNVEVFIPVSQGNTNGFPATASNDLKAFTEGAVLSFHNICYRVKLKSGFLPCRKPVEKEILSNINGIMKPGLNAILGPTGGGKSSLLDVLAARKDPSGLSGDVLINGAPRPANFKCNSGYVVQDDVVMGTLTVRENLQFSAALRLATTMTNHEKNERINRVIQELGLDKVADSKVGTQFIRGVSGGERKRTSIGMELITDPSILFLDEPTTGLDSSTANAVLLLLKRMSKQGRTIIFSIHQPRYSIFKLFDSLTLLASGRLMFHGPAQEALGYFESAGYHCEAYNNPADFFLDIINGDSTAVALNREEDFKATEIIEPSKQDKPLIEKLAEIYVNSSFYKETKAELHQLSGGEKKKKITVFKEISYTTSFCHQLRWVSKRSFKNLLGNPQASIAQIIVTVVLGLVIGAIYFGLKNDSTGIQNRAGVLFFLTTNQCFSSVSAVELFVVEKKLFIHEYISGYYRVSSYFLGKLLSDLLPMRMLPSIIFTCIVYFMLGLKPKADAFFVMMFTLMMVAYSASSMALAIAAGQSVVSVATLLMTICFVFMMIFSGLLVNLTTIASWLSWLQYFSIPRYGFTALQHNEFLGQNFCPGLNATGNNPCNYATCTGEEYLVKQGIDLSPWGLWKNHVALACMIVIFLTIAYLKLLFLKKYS
Format: cell-based

SMILES: CN(Cc1cnc2nc(N)nc(N)c2n1)c1ccc(C(=O)N[C@@H](CCC(=O)O)C(=O)O)cc1 [[^3H]-methotrexate]
- ATP-dependent uptake into membrane vesicles (rapid filtration): inhibited the rates of both methotrexate and E217βG uptake in the membrane vesicles of ABCG2-482-R5
